Data as given in patent US5968933A, “DNA-targeted alkylating agents” (Auckland Division Cancer Society of New Zealand Inc., priority 1994, dated 1999).
“Also recorded” adds a separate entry of the source. Read-outs that look alike come from different tables or passages of the source.

What was measured:
S. typhimurium TA98 = experiment: Bacterial mutagenicity, plate incorporation assay, TA98; conditions: mean ± SD
P388 cells = experiment: Growth inhibition in vitro, P388 leukaemia; format: cell-based, murine; conditions: for IC50: P388 cells, 72 h, MTT, read-out: IC50
Experimental: (§1) Representative examples of compounds of the invention were tested for biological activity against tumors. Compounds 1 to 6 and 14 to 21, prepared as described above, were tested for their ability to inhibit growth in vitro of cells of the wild-type murine leukaemia cell line P388, and the cell line AA8 which is derived from Chinese hamster ovary cells. For each compound, the IC50, ie. the concentration of compound which inhibited cell growth in treated cultures to 50% of that of controls, was determined, using means of three determinations. In addition, a hypersensitivity factor was determined by comparing activity of the compounds against AA8 cells to activity against UV4. The latter cell line is deficient in aspects of the excision repair pathway for removing DNA adducts, and is hypersensitive to DNA-alkylating agents, especially interstrand crosslinking agents. Previous work has shown that the ratio of IC50 s determined in the wild-type AA8 and mutant UV4 lines (the hypersensitivity factor HF) is a determinant of the mode of cell killing by alkylating agents (Palmer, B. D. et al, J. Med. Chem., 1990 33 112-121; Wilson, W. R. et al, J. Med. Chem., 1989 32 31-38). Compounds with HFs of ca. 1 are unlikely to kill cells via DNA alkylation events. Compounds which show high HF values are likely to form bulky adducts or cross-links,with the latter being especially likely for compounds showing the highest HF values (>ca. 25) (Wilson et al, op. cit.).
(§2) Cell lines were maintained in exponential growth phase by subculturing in RPMI 1640 (P338) or Alpha MEM (AA8, UV4) containing 10% fetal calf serum, as previously described (Palmer et al, op.cit.; Baguley, B. C. and Wilson, W. R., Eur. J. Cancer Clin. Oncol., 1987 23 607-613). IC50 values were determined using log-phase cultures in 96-well microculture plates, and were calculated as the nominal drug concentration required to reduce the cell density to 50% of control values, using 8 control cultures on each microplate. For P388 cultures, drug was present throughout the growth period (72 h), and final cell densities were determined using a minor modification of the MTT method of Mossman (Mossman, T., J. Immunol. Methods, 1983 65 55-63). For AA8 and UV4 cultures, drug exposure was terminated after 18 h by washing three times with fresh medium. Cultures were then grown for a further 72 h before determining cell density by staining with methylene blue (Finlay, G. J. et al, Anal. Biochem., 1984 139 272-277).

AA8 and UV4 cells = experiment: Hypersensitivity factor (AA8/UV4 IC50 ratio); format: cell-based, Chinese hamster; conditions: ratio of IC50s AA8/UV4
Experimental: as §1, §2

P338 murine leukaemia = format: in vivo, mice; conditions: for in vivo antitumour activity: P388, single-dose protocol; for Optimal dose / average number of animals in a group of six which were long-term survivors: single i.p. dose; for % Increase in lifespan: single i.p. dose 24 h after tumour inoculation, at optimal dose (mg/kg: 1 30; 2 30; 3 13.3; 4 3.9; 5 5.9; 6 8.9); for average number of animals in a group of six which were long-term survivors: optimal dose
linearized pSV2gpt DNA = experiment: DNA crosslinking assay (agarose gel electrophoresis of linearized plasmid); format: biochemical; conditions: 2 h at 30° C., TE-80 buffer pH 8
Experimental: The ability of representative compounds of the invention to bind to and cross-link DNA was examined. This was carried out by agarose gel electrophoresis of plasmid DNA using linearized pSV2gpt DNA (Tindall, K. R. and Stankowski, L. F.; Mutation Research, 1989 220 241-245) and the method reported by Valu et al, 1990, op.cit. Briefly, linearized pSV2gpt DNA (1 μL of a 1 mg/mL solution) was incubated with drug in TE-80 buffer (10 mM Tris.HCl, 1 mM EDTA at pH 8), shielded from ambient light, for 2 h at 30° C., then denatured by the addition of […] of 1% sodium dodecyl sulfate and 10 μL of 50 mM methylmercury hydroxide and incubated for a further 30 min at 20° C. in the dark. Renaturation of drug-treated DNA samples was carried out by incubation with 2.5 μL of 2-mercaptoethanol for 1 h. Samples were prepared for electrophoresis by the addition of 0.1 mg/mL bromophenol blue, 0.5 μg/mL ethidium bromide and 5 μL of 40% sucrose. Electrophoresis was carried out at 120V in 89 mM tris/borate buffer at pH 8 containing 2 mM EDTA and 0.5 μg/mL ethidium bromide. DNA was visualized using 302 nm trans-illumination, and was photographed using Polaroid type 55 film and a Wratten 3A filter.
After drug treatment, DNA is denatured to the single stranded form, which runs as a lower band in the gels (see lanes 1 and 2 in FIG. 1). Cross-linking by the drugs is evidenced by the appearance of increasing amounts of renatured, double stranded DNA, as shown by the upper band in the gels, corresponding to the band for untreated DNA seen in lane 1.

AA8 cells = experiment: Growth inhibition in vitro, AA8; format: cell-based, Chinese hamster; conditions: for IC50: AA8 cells, 18 h exposure, then 72 h growth, methylene blue, read-out: IC50
Experimental: as §1, §2

S. typhimurium TA100 = experiment: Bacterial mutagenicity, plate incorporation assay, TA100; conditions: for reversion colonies, TA100: mean ± SD; for mutagenicity in TA100: statistical analysis
calf thymus DNA [1] = experiment: Rate of alkylation of calf thymus DNA by increase in DNA-bound fluorescence; format: biochemical; set-up: unit not given here
[2] = test system: Saccharomyces cerevisiae strain D5
calf thymus DNA [3] = experiment: Reversible DNA binding by spectrophotometric Scatchard analysis; conditions: 20° C., 0.01M HEPES buffer, pH 7.00
S. typhimurium TA102 = experiment: Bacterial mutagenicity, plate incorporation assay, TA102; conditions: mean ± SD
DNA minor groove = conditions: background; cited from earlier work
L1210 leukemia = conditions: repeated dose schedule; cited from earlier work
solid tumour lines = conditions: other studies; cited from earlier work
[4] = 80 μg/plate, square brackets: toxicity becoming apparent
[5] = 40 μg/plate, square brackets: toxicity becoming apparent
[6] = 120 μg/plate, square brackets: toxicity becoming apparent
[7] = compound 4 versus compounds 2 and 3

Structure (SMILES)	reversion colonies, TA98 (S. typhimurium TA98; 4 μg/plate)	reversion colonies, TA98 (S. typhimurium TA98; 10 μg/plate)	reversion colonies, TA98 (S. typhimurium TA98; 20 μg/plate)	reversion colonies, TA98 (S. typhimurium TA98; 40 μg/plate)	reversion colonies, TA98 (S. typhimurium TA98; [4])	IC50 (P388 cells) [nM]	Hypersensitivity factor (AA8 and UV4 cells)	in vivo antitumour activity (P338 murine leukaemia)	Optimal dose (P338 murine leukaemia) [mg/kg]	% Increase in lifespan (P338 murine leukaemia) [%]	Cross-linking (linearized pSV2gpt DNA)	reversion colonies, TA100 (S. typhimurium TA100; 4 μg/plate)	reversion colonies, TA100 (S. typhimurium TA100; 10 μg/plate)	reversion colonies, TA100 (S. typhimurium TA100; 20 μg/plate)	reversion colonies, TA100 (S. typhimurium TA100; 40 μg/plate)	reversion colonies, TA100 (S. typhimurium TA100; 80 μg/plate)	Site size (Number of nucleotide residues) (calf thymus DNA [3]) [nucleotide residues]	reversion colonies, TA102 (S. typhimurium TA102; 4 μg/plate)	reversion colonies, TA102 (S. typhimurium TA102; 10 μg/plate)	reversion colonies, TA102 (S. typhimurium TA102; 20 μg/plate)	also measured
CN1CCN(c2ccc3nc(-c4ccc5nc(-c6ccc(N(CCCl)CCCl)cc6)[nH]c5c4)[nH]c3c2)CC1 [Compound 2, 2-[2-[4-(N,N-bis(2-chloroethyl)amino)phenyl]-5-benzimidazolyl]-5-(1-methyl-4-piperazinyl)benzimidazole]	61 ± 3	68 ± 2	58 ± 1	52 ± 7	55 ± 2	800	24	highest activity	30	106	No	173 ± 7	175 ± 17	167 ± 28	210 ± 20	192 ± 1	2.6	408 ± 31	371 ± 14	280 ± 14	average number of animals in a group of six which were long-term survivors (P338 murine leukaemia): 2 animals; IC50 (AA8 cells): 1680 nM; Rate constant for alkylation (calf thymus DNA [1]): 1.78 × 10^4; bacterial mutagenicity (S. typhimurium strains): inactive as a bacterial mutagen; petite (mitochondrial) mutagenesis [2]: inactive
CN1CCN(c2ccc3nc(-c4ccc5nc(-c6ccc(O)cc6)[nH]c5c4)[nH]c3c2)CC1 [Pibenzimol, reference compound]	59 ± 3	64 ± 8	55 ± 6	61 ± 5	62 ± 9		about unity	not active against P388 using the single-dose protocol				188 ± 11	191 ± 7	179 ± 6	168 ± 13	178 ± 11	2.4	275 ± 12	277 ± 1	301 ± 3	binding to DNA minor groove (DNA minor groove): binds to regions of the minor groove rich in adenine and thymine bases; in vivo activity against L1210 leukemia (L1210 leukemia): moderate in vivo activity; IC50 (P388 cells; Mus musculus): ~1000 nM; activity against the AA8 cell line (AA8 cells; compared with P388, shorter exposure time): much less active; mutagenicity in TA100 (S. typhimurium TA100): no statistically significant mutagenic response in TA100; petite (mitochondrial) mutagenesis [2]: not active in this system; reversion colonies, TA102 (S. typhimurium TA102; [5]): 377 ± 49; reversion colonies, TA102 (S. typhimurium TA102; [4]): 397 ± 10; cytotoxicity in solid tumour lines (solid tumour lines): very low cytotoxicity
CN1CCN(c2ccc3nc(-c4ccc5nc(CCCCCCc6ccc(N(CCCl)CCCl)cc6)[nH]c5c4)[nH]c3c2)CC1 [Compound 6, 2-[2-[6-[4-(N,N-bis(2-chloroethyl)amino)phenyl]hexyl]-5-benzimidazolyl]-5-(1-methyl-4-piperazinyl)benzimidazole]	65 ± 10	69 ± 7	68 ± 8	69 ± 9	96 ± 5	60	20		8.9	23	Yes and crosslinked DNA	160 ± 13	136 ± 0	156 ± 29	144 ± 10	142 ± 10	2.4	271 ± 31	386 ± 10	342 ± 14	reversion colonies, TA98 (S. typhimurium TA98; [6]): 75 ± 3; IC50 (AA8 cells): 400 nM; reversion colonies, TA100 (S. typhimurium TA100; [6]): 157 ± 14; Rate constant for alkylation (calf thymus DNA [1]): 9.64 × 10^4; bacterial mutagenicity (S. typhimurium strains; overall): lower bacterial mutagenicity; petite (mitochondrial) mutagenesis ([2]; yeast strain D5, in words): showed activity, albeit weak; reversion colonies, TA102 (S. typhimurium TA102; [5]): 372 ± 19; reversion colonies, TA102 (S. typhimurium TA102; [4]): 336 ± 19; reversion colonies, TA102 (S. typhimurium TA102; [6]): 353 ± 34
CN1CCN(c2ccc3nc(-c4ccc5nc(CCc6ccc(N(CCCl)CCCl)cc6)[nH]c5c4)[nH]c3c2)CC1 [Compound 4, 2-[2-[2-[4-(N,N-bis(2-chloroethyl)amino)phenyl]ethyl]-5-benzimidazolyl]-5-(1-methyl-4-piperazinyl)benzimidazole]	71 ± 2	74 ± 10	75 ± 1	65 ± 6		10	47	retained significant in vivo activity	3.9	52	No	172 ± 4	231 ± 7	264 ± 12	237 ± 29	207 ± 10	2.8	340 ± 26	366 ± 49	429 ± 17	increase in cytotoxicity in P388 (P388 cells; [7]): 80 fold; average number of animals in a group of six which were long-term survivors (P338 murine leukaemia): 1 animals; IC50 (AA8 cells): 330 nM; increase in cytotoxicity in AA8 (AA8 cells; [7]): 5 fold; reversion colonies, TA100 (S. typhimurium TA100; [6]): 232 ± 19; mutagenicity in TA100 (S. typhimurium TA100): could be considered to show a mutagenic effect in TA100; also recorded: mutagenic ability; Rate constant for alkylation (calf thymus DNA [1]): 4.62 × 10^4; aberrant colonies in yeast ([2]; yeast strain D5, in words): some aberrant colonies; mitotic crossing-over ([2]; yeast strain D5, in words): weak mitotic crossing-over; reversion colonies, TA102 (S. typhimurium TA102; [5]): 465 ± 41; reversion colonies, TA102 (S. typhimurium TA102; [4]): 609 ± 74
